# Measurements taken from patent US9145415B2, “Nitrogen-containing heterocyclic compound or salt thereof” (FUJIFILM Corporation, priority 2012, dated 2015).
# Like-named read-outs stand apart in the source and are kept apart here.
# How the values were obtained:
# [1] = test system: MV4-11 cells; assay: Leukemia cell proliferation inhibition test (ATPlite), MV4-11; assay type: cell-based; conditions: Homo sapiens, read-out: MV4-11 cell proliferation inhibition effect
# Procedure, shortened: (§1)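 Luminescent ATP read-out (firefly luciferase) used as a total cell count after 72 h compound exposure at 37° C, 5% CO2. Cells: 10,000/well in RPMI + 10% FBS. GI50 = 50% inhibition relative to 0.1% DMSO, from a sigmoid dose-response fit; duplicates.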
# [2] = biological target: T1, human FLT3 protein (FLT3 (WT)) (Homo sapiens, UniProt P36888); assay: FLT3 inhibition test (FLT3 enzyme inhibition, time-resolved fluorescence of substrate peptide phosphorylation); assay type: biochemical; conditions: read-out: FLT3 (WT) enzyme inhibition activity
# T1 construct: human FLT3 protein (intracellular region, 564 to 993 aa); GST; purchased Carna Biosciences; host or cells: baculovirus expression system
# T1 sequence (P36888 564-993): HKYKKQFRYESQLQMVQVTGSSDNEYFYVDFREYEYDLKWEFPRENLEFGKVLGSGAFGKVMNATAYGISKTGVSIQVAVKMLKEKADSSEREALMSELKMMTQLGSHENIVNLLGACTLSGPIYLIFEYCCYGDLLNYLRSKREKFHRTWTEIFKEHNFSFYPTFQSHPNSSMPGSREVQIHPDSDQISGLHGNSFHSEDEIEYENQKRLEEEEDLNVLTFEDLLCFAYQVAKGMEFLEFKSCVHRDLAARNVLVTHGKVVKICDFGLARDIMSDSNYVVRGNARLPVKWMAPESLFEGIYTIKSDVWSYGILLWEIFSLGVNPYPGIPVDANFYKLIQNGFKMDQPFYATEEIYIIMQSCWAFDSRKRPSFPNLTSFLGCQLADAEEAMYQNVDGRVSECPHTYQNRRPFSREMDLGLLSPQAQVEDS
# Procedure, shortened: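 Substrate peptide phosphorylation detected by time-resolved fluorescence after a 30 min kinase reaction at 25° C with 50 μM ATP (final). Beforehand, compound and FLT3 (WT, 1.2 μg) stood 15 min at 25° C in HEPES buffer pH 7.5 containing MgCl2, NaCl, BSA and DTT.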
# [3] = test system: Molm-13 cells; assay: Leukemia cell proliferation inhibition test (ATPlite), Molm-13; assay type: cell-based; conditions: Homo sapiens, read-out: MOLM13 cell proliferation inhibition effect
# Procedure, shortened: as §1
# [4] = MV4-11, 72 h, MV4-11, 72 hours culture, ATPlite, GI50 per method
# [5] = GST-fused human FLT3 (564 to 993 aa), ATP 50 μM
# [6] = MOLM-13, 72 h, Molm-13, 72 hours culture, ATPlite, GI50 per method
Structure (SMILES),"IC50 ([1]; MV4-11, MV4-11 cell) [nM]",IC50 ([2]; FLT3 (WT)) [nM],"IC50 ([3]; MOLM-13, MOLM13 cell) [nM]","IC50 [1, 4] [nM]","IC50 [2, 5] [nM]","IC50 [3, 6] [nM]"
CCCNc1nc(Nc2cnc3c(c2)c(C)nn3CCOC)ncc1C#CCCCNC(=O)[C@H](C)N(C)C(=O)/C=C/CN(C)C [Compound 22-41],< 10,< 10,< 10,–,–,–
CNc1nc(Nc2ccc3cn[nH]c3c2)ncc1C#CCCCNC(=O)[C@@H]1CCCN1C(=O)/C=C/CN(C)C [Compound 10-69],–,–,–,< 10,< 10,< 10
"CCCNc1nc(Nc2ccc(C(N)=O)cc2)ncc1-c1cccc(CCNC(=O)CNC(=O)/C=C/CN(C)C)c1 [Compound 16-1, (E)-4-((5-(3-(2-(2-(4-(dimethylamino)-2-butenamido)actamido)ethyl)phenyl)-4-(propylamino)pyrimidin-2-yl)amino)benzamide]",–,–,–,10 to 100,< 10,100 to 1000
C[C@@H](C(=O)N[C@H]1CCC[C@@H](C#Cc2cnc(Nc3cccc(F)c3)nc2NC2CC2)C1)N(C)C(=O)/C=C/CN(C)C [Compound 21-29],–,–,–,< 10,< 10,< 10
"CNc1nc(Nc2cccc(F)c2)ncc1C#CCCCNC(=O)[C@@H]1C[C@H](F)CN1C(=O)/C=C/CN(C)C [Compound 7-72, (2S,4S)-1-((E)-4-(Dimethylamino)-2-butenoyl)-4-fluoro-N-(5-(2-((3-fluorophenyl)amino)-4-(methylamino)pyrimidin-5-yl)-4-pentyn-1-yl)pyrrolidine-2-carboxamide]",–,–,–,< 10,< 10,< 10
"COCCCNc1nc(Nc2ccc3[nH]ncc3c2)ncc1C#CCCCNC(=O)[C@@H]1CCCN1C(=O)/C=C/CN(C)C [Compound 10-68, (S,E)-N-(5-(2-((1H-Indazol-5-yl)amino)-4-((3-methoxypropyl)amino)pyrimidin-5-yl)-4-pentyn-1-yl)-1-(4-(dimethylamino)-2-butenoyl)pyrrolidine-2-carboxamide]",–,–,–,< 10,< 10,< 10
"CCCNc1nc(Nc2cccc(F)c2)ncc1C(=O)Nc1cccc(NC(=O)[C@H](C)N(C)C(=O)/C=C/CN(C)C)c1 [Compound 6-4, (S,E)-N-(3-(2-(4-(dimethylamino)-N-methyl-2-butenamido)propanamido)phenyl)-2-((3-fluorophenyl)amino)-4-(propylamino)pyrimidine-5-carboxamide]",–,–,–,< 10,< 10,< 10
"COCCCNc1nc(Nc2cccc(F)c2)ncc1C#C[C@H]1C[C@@H](NC(=O)[C@H](C)N(C)C(=O)/C=C/CN(C)C)C1 [Compound 15-15, (E)-4-(Dimethylamino)-N—((S)-1-(((1S,3R)-3-((2-((3-fluorophenyl)amino)-4-((3-methoxypropyl)amino)pyrimidin-5-yl)ethynyl)cyclobutyl)amino)-1-oxopropan-2-yl)-N-methyl-2-butenamide]",–,–,–,< 10,< 10,< 10
CCCNc1nc(Nc2cccc(F)c2)ncc1C#CCCCNC(=O)[C@@H]1C[C@@H](OC)CN1C(=O)/C=C/CN(C)C [Compound 7-58],–,–,–,< 10,< 10,< 10
C=C(C)C(=O)N(C)[C@@H](C)C(=O)Nc1cccc(NC(=O)c2cnc(Nc3ccc(C(N)=O)cc3)nc2NCCC)c1 [Compound 3-10],–,–,–,100 to 1000,< 10,100 to 1000
CCCNc1nc(Nc2ccc(C#N)cc2)ncc1C#C[C@H]1C[C@@H](NC(=O)[C@H](C)N(C)C(=O)/C=C/CN(C)C)C1 [Compound 13-9],–,–,–,< 10,< 10,< 10
C=CC(=O)NCC(=O)NC1CCCC(NC(=O)c2cnc(Nc3ccc(C(N)=O)cc3)nc2NCCC)C1 (stereo not drawn) [Compound 3-2],–,–,–,10 to 100,< 10,10 to 100
C=CC(=O)N[C@H](C)C(=O)Nc1cccc(NC(=O)c2cnc(NCCc3ccncc3)nc2NCCC)c1 [Compound 2-3],–,–,–,10 to 100,< 10,10 to 100
CCCNc1nc(Nc2ccccc2F)ncc1C#CCCCNC(=O)[C@H](C)N(C)C(=O)/C=C/CN(C)C [Compound 12-10],–,–,–,10 to 100,< 10,100 to 1000
CCCNc1nc(Nc2cccc(F)c2)ncc1C#Cc1cc(NC(=O)[C@H](C)N(C)C(=O)/C=C/CN(C)C)ccc1F [Compound 8-7],–,–,–,< 10,< 10,10 to 100
CCCNc1nc(Nc2ccc(C#N)cc2)ncc1C#C[C@H]1CCC[C@@H](NC(=O)[C@H](C)N(C)C(=O)/C=C/CN(C)C)C1 [Compound 13-3],–,–,–,< 10,< 10,10 to 100
CCCNc1nc(Nc2cccc(F)c2)ncc1C#CCCCNC(=O)[C@H](C(C)C)N(C)C(=O)/C=C/CN(C)C [Compound 7-10],–,–,–,10 to 100,< 10,10 to 100

Structure (SMILES),"IC50 ([1]; MV4-11, MV4-11 cell) [nM]",IC50 ([2]; FLT3 (WT)) [nM],"IC50 ([3]; MOLM-13, MOLM13 cell) [nM]","IC50 [1, 4] [nM]","IC50 [2, 5] [nM]","IC50 [3, 6] [nM]"
C[C@@H](C(=O)N[C@H]1CCC[C@@H](C#Cc2cnc(Nc3ccc(C#N)cc3)nc2NC2CC2)C1)N(C)C(=O)/C=C/CN(C)C [Compound 7-35],–,–,–,< 10,< 10,< 10
CCCNc1nc(NCCc2ccncc2)ncc1C(=O)Nc1cccc(NC(=O)CNC(=O)/C=C/CN2CCOCC2)c1 [Compound 2-13],–,–,–,10 to 100,< 10,10 to 100
C[C@@H](C(=O)NCCCC#Cc1cnc(Nc2ccc(F)cc2)nc1N1CCCCC1)N(C)C(=O)/C=C/CN(C)C [Compound 10-38],–,–,–,< 10,< 10,10 to 100
CNc1nc(Nc2ccc(F)nc2)ncc1C#C[C@@H]1CCC[C@H](NC(=O)[C@H](C)N(C)C(=O)/C=C/CN(C)C)C1 [Compound 15-3],–,–,–,< 10,< 10,< 10
CNc1ncc(C#CCCCNC(=O)[C@H](C)N(C)C(=O)/C=C/CN(C)C)c(Nc2ccc(OC)cc2)n1 [Compound 21-48],10 to 100,< 10,< 10,–,–,–
CN(C)C/C=C/C(=O)N(C)CC(=O)NCCCC#Cc1cnc(Nc2ccc(F)cc2)nc1NCC1CCOCC1 [Compound 10-18],–,–,–,< 10,< 10,< 10
C=CC(=O)NCC(=O)Nc1cccc(CNC(=O)c2cnc(NCCc3ccncc3)nc2NCCC)c1 [Compound 2-27],–,–,–,100 to 1000,10 to 100,100 to 1000
CN(C)C/C=C/C(=O)N1CCC[C@H]1C(=O)N[C@H]1C[C@@H](C#Cc2cnc(Nc3ccc(C#N)cc3)nc2NC2CC2)C1 [Compound 15-12],–,–,–,< 10,< 10,< 10
"CCCNc1nc(Nc2ccc(C(N)=O)cc2)ncc1C(=O)Nc1cccc(NC(=O)[C@H](C)N(C)C(=O)/C=C/CN2CCNCC2)c1 [Compound 4-1, (S,E)-2-((4-carbamoylphenyl)amino)-N-(3-(2-(N-methyl-4-(piperazin-1-yl)-2-butenamido)propanamido)phenyl)-4-(propylamino)pyrimidine-5-carboxamide]",–,–,–,10 to 100,< 10,10 to 100
CCCNc1nc(Nc2ccc(C#N)cc2)ncc1C#C[C@@H]1CC[C@H](NC(=O)[C@H](C)N(C)C(=O)/C=C/CN(C)C)C1 [Compound 13-11],–,–,–,< 10,< 10,< 10
CNc1nc(Nc2ccc(OC)c(F)c2)ncc1C#CCCCNC(=O)[C@@H]1CCCN1C(=O)/C=C/CN(C)C [Compound 21-42],< 10,< 10,< 10,–,–,–
COCCCNc1nc(Nc2ccnc(OC)c2)ncc1C#CCCCNC(=O)[C@H](C)N(C)C(=O)/C=C/CN(C)C [Compound 9-31],–,–,–,< 10,< 10,< 10
CCCNc1nc(Nc2cccc3c2cnn3C)ncc1C#CCCCNC(=O)[C@H](C)N(C)C(=O)/C=C/CN(C)C [Compound 21-5],–,–,–,> 1000,100 to 1000,100 to 1000
CN(C)C/C=C/C(=O)N1CCC[C@H]1C(=O)N[C@H]1C[C@@H](C#Cc2cnc(Nc3cccc(F)c3)nc2NC2CC2)C1 [Compound 15-11],–,–,–,< 10,< 10,< 10
CCCNc1nc(Nc2ccc3c(c2)c(OC)nn3CCOC)ncc1C#CCCCNC(=O)[C@H](C)N(C)C(=O)/C=C/CN(C)C [Compound 22-14],< 10,< 10,< 10,–,–,–
CCCNc1nc(Nc2ccc(F)cc2)ncc1C#CCCCNC(=O)[C@H](C)N(C)C(=O)/C=C/CN(C)C [Compound 12-3],–,–,–,< 10,< 10,< 10
